The EC50 is the concentration that produces a half-maximal response.

The values that follow come from US20060235062A1, “Novel heterocyclic analogs of diphenylethylene compounds” (THERACOS, INC., priority 2002, published 2006).

Assay [1] has as its system 3T3-L1 adipocytes. The assay is described as follows: Glucose uptake in differentiated 3T3-L1 adipocytes. The conditions noted are these: for % Glucose uptake 0.1 μm / % Glucose uptake 1.0 μm: average of quadruplicate ± SD. The format is cell-based. On the procedure: Referring to FIG. 8 glucose uptake in 3T3-L1 differentiated adipocytes was measured after treatment with the test compound. The assay was conducted according to the method of Tafuri, Endocrinology, 137, 4706-4712 (1996). The serum-starved cells were treated with the test compound for 48 hours at different concentrations, then washed and incubated in glucose-free media for 30 minutes at 37° C. Then ^14C-deoxyglucose was added and uptake was monitored for 30 minutes under incubation. After washing, the cells were lysed (0.1% SIDS) and counted.
Basal glucose uptake was measured in differentiated 3T3-L1 adipocytes following the protocol of Tafuri (6) with modifications. Briefly, 3T3-L1 fibroblasts, obtained from ATCC (Manassas, Va.), were differentiated to adipocytes by treating cells with porcine insulin (1 μg/ml for 4 days), dexamethasone (0.25 μM for first 2 days) and isobutyl methyl xanthine (IBMX, 0.5 mM for first 2 days) (all from Sigma Chemicals, St Louis, Mo.) following the protocol of Frost and Lane (7). Differentiated adipocytes were incubated in Dulbecco's Modified Eagle Medium (DMEM) containing 10% fetal bovine serum (GibcoBRL, Gaithersburg, Md.) with various concentrations of Compound 11 or vehicle (0.1% DMSO) for 48 h in 24-well plates, in triplicate. Cells were washed with phosphate buffered saline (PBS, 150 mM NaCl, 1 mM KH2PO4, 3 mM Na2HPO4; pH 7.4) and incubated in glucose-free DMEM for 2 h at 37° C. The cells were washed 3 times with Krebs Ringer Phosphate Buffer (KRP). Glucose uptake was initiated by addition of 0.25 μCi 2-^14C(U)-deoxy-D-glucose (300 μCi/mmol, American Radiolabeled Chemicals Inc., St Louis, Mo.) per well and the cells incubated for 10 min at room temperature in the presence of 0.1 mmol cold 2-deoxy-D-glucose. Finally, the cells were washed three times with ice-cold PBS containing 10 mM cold glucose, lysed with 0.5% SDS, and counted in a scintillation counter (Beckman LS6500).

Assay [2] deals with T1, Human PPAR-γ2 (Homo sapiens, UniProt P37231).
T1 construct: inserting the PPARγ2 cDNA coding region into pcDNA3.1+ vector; expressed in transfected cells; host or cells: HEK293 cells (ATCC)
T1 sequence (P37231 1-505): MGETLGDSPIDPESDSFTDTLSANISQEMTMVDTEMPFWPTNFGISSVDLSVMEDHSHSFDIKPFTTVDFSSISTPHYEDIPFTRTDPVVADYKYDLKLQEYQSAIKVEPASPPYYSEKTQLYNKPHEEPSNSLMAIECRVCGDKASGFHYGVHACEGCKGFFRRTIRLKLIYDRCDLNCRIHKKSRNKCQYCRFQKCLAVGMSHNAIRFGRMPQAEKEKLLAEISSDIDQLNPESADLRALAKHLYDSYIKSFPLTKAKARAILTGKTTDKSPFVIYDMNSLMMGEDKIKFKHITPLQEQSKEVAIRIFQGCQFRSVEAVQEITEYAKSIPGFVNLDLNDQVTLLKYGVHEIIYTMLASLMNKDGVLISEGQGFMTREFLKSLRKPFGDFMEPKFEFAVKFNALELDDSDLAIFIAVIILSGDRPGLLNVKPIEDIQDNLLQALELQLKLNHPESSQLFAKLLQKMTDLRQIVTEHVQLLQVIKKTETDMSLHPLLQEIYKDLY
The assay is described as follows: PPAR-gamma mediated transactivation of PPRE-luciferase reporter. It is filed as cell-based. The conditions noted are these: for EC50: cells transfected with human PPAR-gamma2, 24 hours, non-linear regression, read-out: EC50, induction of PPAR-γ mediated luciferase activity. As for the experimental part:
Human PPAR-γ2 expression vector was constructed by inserting PPAR-γ2 encoding region into pcDNA3.1+ vector (Invitrogen, Carlsbad, Calif.). Luciferase reporter vector was constructed by ligating PPRE response element adjacent to the upstream of Firefly luciferase coding region. Control vector, pRL-SV40 expressing Renilla luciferase was purchased from Promega (Madison, Wis.).
About 2.7×10^4 293 cells (ATCC, Manassas, Va.) were plated into a 35 mm culture well and maintained in Eagle's Minimal Essential Medium (ATCC, Manassas, Va.) supplemented with 10% heat inactivated horse serum (ATCC, Manassas, Va.) for 24 hours. Expression, reporter and control vectors (2.5 ng control and 100 ng others per culture well) were transfected by LI[…]™ Reagent (Invitrogen, Carlsbad, Calif.). Transfection reagent and DNA were prepared according to manufacture's recommendations and incubated with cells for 3 hours followed by adding equal volume EMEM supplemented with 20% horse serum. Twenty-four hours after transfection, cells were treated with vehicle or compounds at indicated final concentration for 24 hours. Final concentration of vehicle was 0.001% DMSO (Sigma, ST Louis, Mo.) in medium. Vehicle and compound treatment were all conducted in triplicate. Each culture well was then assayed for a response characterized by increased Firefly luciferase activity normalized with Renilla luciferase activity.
Assays for Firefly luciferase activity and Renilla luciferase activity followed the standard protocol of Dual-luciferase Reporter® Assay System (Promega, Madison, Wis.). Briefly, 400 μl Passive Lysis Buffer was added into each culture well and all wells were placed on a shaker for 15 minutes. Five μl cell lysate of each well was added to a reaction tube. Luciferase reagent II and Stop & Glo® were injected into the reaction tube sequentially by Sirius Luminometer (Berthold Detection Systems, Pforzheim, Germany). Final reporter activity was calculated as the ratio of Firefly luciferase activity over by Renilla luciferase activity.
Human PPARγ2 expression vector was constructed by inserting the PPARγ2 cDNA coding region into pcDNA3.1+ vector (Invitrogen, Carlsbad, Calif.). The PPRE-luciferase reporter gene was the kind gift of Dr. Kenneth Feingold. The control vector, pRL-SV40 containing the Renilla luciferase cDNA was purchased from Promega (Madison, Wis.). About 2.7×10^4 HEK293 human embryonal kidney cells (ATCC) were plated into a 35-mm tissue culture dish and maintained in Eagle Modified Essential Medium (EMEM, ATCC) containing 10% heat-inactivated horse serum for 24 h. Expression, reporter (100 ng/dish) and control (2.5 ng/dish) vectors were transfected using LI[…]™ Reagent (GibcoBRL) according to manufacturer's recommendation. At 24 h after transfection, cells were treated with vehicle (0.001% DMSO in medium) or compounds at the indicated concentration and incubated for 24 h. Each treatment was conducted in triplicate. Each culture dish was assayed for firefly luciferase activity normalized by Renilla luciferase activity to account for differences in transfection efficiency. Luciferase activity was measured using the Dual-luciferase Reporter® Assay System (Promega) and a Sirius luminometer (Berthold Detection System, Pforzheim, Germany).
In general terms: In a reporter assay the amount or activity of a reporter protein is the signal.

Assay [3] deals with NF-kB p65. The experiment in a line: NF-kB p65 activation in LPS-stimulated RAW cells (ELISA). The format is cell-based. The conditions noted are these: 10 μM, 1 μg/ml LPS 15 min, FIG. 15. A general note: ELISA stands for enzyme-linked immunosorbent assay.
Assay [4] relates to AIA rats. The experiment in a line: Cancellous bone loss in adjuvant induced arthritic (AIA) rats, MicroCT of right proximal tibia. It is filed as in vivo, male Lewis rats.

As to `COC(=O)C(=Cc1cc(OC)cc(OC)c1)c1ccc(Oc2ccc(C=C3SC(=O)NC3=O)cc2)cc1` [Compound 10, 3-(3,5-Dimethoxyphenyl)-2-{4-[4-(2,4-dioxothiazolidin-5-ylidenemethyl)-phenoxy]-phenyl}-acrylic acid methyl ester], the “glucose uptake activity in words” value in assay [1] (0.1 μM) is “retained activity, but less than that of rosiglitazone”. Besides, the “glucose uptake activity in words” value in assay [1] (1 μM) was “comparable to rosiglitazone”. Moreover, in assay [1], the “% Glucose uptake 0.1 μm” value was 142.6 ± 7.4 % basal of the non treated cells and the “% Glucose uptake 1.0 μm” value is 209.3 ± 22.6 % basal of the non treated cells. Besides, in assay [2], the EC50 came out at 1.14 µM. The “PPAR-gamma agonist potency in words” value in assay [2] (in vitro transactivation assay) is “reasonable potency”.

Regarding `COc1cc(C=C(C(=O)O)c2ccc(Oc3ccc(CC4SC(=O)NC4=O)cc3)cc2)cc(OC)c1` (stereo not shown) [Compound 14], the “glucose uptake activity in words” value in assay [1] (1 μM) is on record as “comparable to rosiglitazone”. For the same compound, in assay [1], the “% Glucose uptake 0.1 μm” value was 108.6 ± 19.9 % basal of the non treated cells and the “% Glucose uptake 1.0 μm” value is 199.5 ± 11.6 % basal of the non treated cells. In addition, in assay [2], the EC50 amounted to 0.69 ± 0.038 µM. In addition, the “PPAR-gamma agonist potency in words” value in assay [2] (in vitro transactivation assay) is “reasonable potency”.

Take `CCCCC/C=C/C=C1/C(=O)C=C[C@@H]1C/C=C\CCCC(=O)O` [Compound 15dPGJ2, 15-deoxy-Δ^12,14-prostaglandin J2]: the “inhibition of the activation of NF-kB (p65)” value in assay [3] is “inhibited”.

As to `COC(=O)C(Cc1cc(OC)cc(OC)c1)c1ccc(Oc2ccc(C=C3SC(=O)NC3=O)cc2)cc1` (stereo not shown) [Compound 17, 3-(3,5-Dimethoxyphenyl)-2-{4-[4-(2,4-dioxothiazolidin-5-ylidenemethyl)-phenoxy]-phenyl}-propionic acid methyl ester], the “glucose uptake activity in words” value in assay [1] (0.1 μM) is reported as “devoid of activity”. Moreover, the “glucose uptake activity in words” value in assay [1] (1 μM) is recorded as “modest activity”. Further, in assay [1], the “% Glucose uptake 0.1 μm” value is recorded as 101.9 ± 6.8 % basal of the non treated cells and the “% Glucose uptake 1.0 μm” value was 130.0 ± 27.0 % basal of the non treated cells. Also, the EC50 in assay [2] was determined as 23.9 µM. Further, the “PPAR-gamma agonist potency in words” value in assay [2] (in vitro transactivation assay) was “essentially inactive”.

For the compound `COC(=O)C(Cc1cc(OC)cc(OC)c1)c1ccc(Oc2ccc(CC3SC(=O)NC3=O)cc2)cc1` (stereo not shown) [Compound 18, 3-(3,5-Dimethoxyphenyl)-2-{4-[4-(2,4-dioxothiazolidin-5-ylmethyl)-phenoxy]-phenyl}-propionic acid methyl ester], the “glucose uptake activity in words” value in assay [1] (0.1 μM) is “devoid of activity”. The “glucose uptake activity in words” value in assay [1] (1 μM) is reported as “modest activity”. Also, in assay [1], the “% Glucose uptake 0.1 μm” value was 104.4 ± 5.7 % basal of the non treated cells and the “% Glucose uptake 1.0 μm” value is reported as 137.0 ± 10.1 % basal of the non treated cells. Also, in assay [2], the EC50 came to 57.7 µM. Also, the “PPAR-gamma agonist potency in words” value in assay [2] (in vitro transactivation assay) is “essentially inactive”.

Turning to `COC(=O)/C(=C\c1cc(OC)cc(OC)c1)c1ccc(Oc2ccc(CC3SC(=O)NC3=O)cc2)cc1` (stereo not shown) [Compound 23, Z-3-(3,5-Dimethoxyphenyl)-2-{4-[4-(2,4-dioxothiazolidin-5-ylmethyl)-phenoxy]-phenyl}-acrylic acid methyl ester], in assay [1] (1 μM), the “glucose uptake activity in words” value is “essentially inactive”. Further, in assay [1], the “% Glucose uptake 0.1 μm” value is 89.5 ± 5.6 % basal of the non treated cells and the “% Glucose uptake 1.0 μm” value is reported as 118.0 ± 3.6 % basal of the non treated cells. Also, the EC50 in assay [2] came to 3.69 ± 1.45 µM. Moreover, in assay [2] (in vitro transactivation assay), the “PPAR-gamma transactivation potency relative to a comparator, in words” value was “less than one-tenth the potency of compound 11”.

In the case of Etanercept, the “less cancellous bone lost” value in assay [4] (AIA rats, treated vs vehicle) is approximately 50%. Also, in assay [4] (right proximal tibia), the C.Th is 198 ± 25 μm, the “Conn. Dens” value was 31.9 ± 19.7 l/mm3, the “SMI (0-3)” value was determined as 2.8 ± 0.4 and the Tb.N is given as 2.8 ± 0.5 l/mm. The BV/TV in assay [4] (right proximal tibia, compound 11 50 mg/kg oral, etanercept 1.67 mg/kg i.p., once daily) stood at 12.9 ± 5.2%.

For “Insulin: insulin, comparator in the 3T3-L1 glucose uptake test”, in assay [1], the “% Glucose uptake 0.1 μm” value was 335.2 ± 21.7 % basal of the non treated cells and the “% Glucose uptake 1.0 μm” value is given as 345.6 ± 8.3 % basal of the non treated cells.
